Laboratory results: patent publication US20100292287A1, “Periodontitis treatment” (priority 2009, published 2010)

Tests used:
[1] = tested on: non-diabetic Sprague Dawley rats injected with lipopolysaccharide from Porphyromonas gingivalis; assay: LPS-induced periodontitis (alveolar bone loss, root/enamel ratio) in non-diabetic rats fed ARI diets; assay type: in vivo, rat; conditions: for ratio of exposed root to enamel area, LPS side / ratio of exposed root to enamel area, PBS side: non-diabetic rats; for ratio of exposed root to enamel area, LPS side: first value of 'LPS and PBS sides ... respective ratios'; for ratio of exposed root to enamel area, PBS side: second value of 'LPS and PBS sides ... respective ratios'; for difference in the ratios between the LPS and PBS sides: normal (non-diabetic) rats, FIG. 7
Experimental: (§1) All rats with blood glucose levels >300 mg/dL were then equally divided into 4 groups. The first diabetic group of 8 rats received standard rat diet (BioServe), the second received similar rat diet containing 0.015% of tolrestat, the third group received similar diet containing 0.0125% imirestat, and the fourth group received similar diet containing 0.08% quercetin. Experimental diets were initiated 10 days following initial streptozotocin injections and continued for 10 weeks until the studies were terminated. Non-diabetic age-matched rats were also added as additional non-diabetic controls. These consisted of 4 groups of 8 rats each as follows: an untreated non-diabetic group received standard rat diet, the second control group received similar rat diet containing 0.015% of tolrestat, the third control group received similar diet containing 0.0125% imirestat, and the fourth control group received similar diet containing 0.08% quercetin.
(§2) Forty-four days after initiation of diets, each rat was anesthetized with 4% isoflurane vapor in an induction chamber. Each rat was then placed on its back and the palatal gingiva between the first and second maxillary molars on the right side was injected with 10 μL of a phosphate-buffered saline (PBS) solution containing 1 mg/mL lipopolysaccharide LPS from Porphyromonas gingivalis (InvivoGen, San Diego, Calif.) using an insulin syringe equipped with a blunted edge 30-gauge needle to induce the formation of periodontitis. As a control, 10 μL of PBS was similarly injected into the left side of the jaw. This injection was followed by two additional injections at 48-hour intervals. Twenty-four days after the final injection, all rats were euthanized with carbon dioxide gas. The heads were decapitated with a guillotine and frozen for subsequent defleshing. Blood from each rat was obtained by heart puncture and HbA1c levels were measured using the Metrika A1cNOW Plus System Test Strips (Fisher Healthcare).
Each thawed head was manually defleshed using standard dental instruments by Dr. James O'Meara, Assoc. Professor of General Dentistry at Creighton University of Omaha, Nebr. The maxillary area was separated from the remaining skull using bone cutters, and each defleshed left and right maxillary alveolus with molars were stored in PBS buffer. Finally, all cleaned maxillary alveoli were placed in 3% aqueous peroxide solution overnight and air dried. They were then stained in 5% aqueous toluidine blue to identify the cemento-enamel junction (CEJ) on the molars. After air drying, each stained preparation was examined under a dissecting microscope and cleaned of any remaining flesh particles using the tip of a 20-gauge needle. Each palatal preparation was then placed onto a 20 mm petri dish containing ultrafine chromatography grade silica and a mm ruler. The maxilla-molar area palatal sides were then photographed using a PAXcam2+ USB2 Digital Microscope Camera attached to a Zeiss dissection microscope at 40' magnification. 2.0 MP images were captured with 1616×1216 image resolution. The images were analyzed using Pax-it software (Paxcam, Chicago, Ill.). Care was taken to obtain images with consistent camera angles.
In each image the two molars between which the injections were made were analyzed. The exposed side of each molar was manually outlined along with the area encompassed by the cemento-enamel junction (CEJ) and exposed root area. To facilitate differentiation of the exposed root area and the CEJ, each photograph was photo-enhanced as required using sharpening or desaturating techniques. Multiple tracings were obtained and averaged for each image. Moreover, since tooth movement can also increase variability, multiple images of the same sample were also analyzed, if necessary. The area measurements from both molars were combined, and from these combined area measurements, a ratio of exposed root area (root to the CEJ) versus enamel area was obtained. […]

[2] = tested on: diabetic Sprague Dawley rats injected with lipopolysaccharide from Porphyromonas gingivalis; assay: LPS-induced periodontitis (alveolar bone loss, root/enamel ratio) in streptozotocin diabetic rats fed ARI diets; assay type: in vivo, rat; conditions: for ratio of exposed root to enamel area, LPS side: LPS injected (right) side; for ratio of exposed root to enamel area, LPS side / ratio of exposed root to enamel area, PBS side: mean±S.E.M.; for ratio of exposed root to enamel area, PBS side: PBS injected (left, internal control) side
Experimental: A group of 80 approximately 81-100 g male Sprague Dawley rats were utilized for this study. Diabetes was induced in 40 of these rats by tail vein injection of 75 mg/kg of streptozotocin. After 3 days, blood glucose (BG) levels in blood obtained from tail vein lacerations were analyzed with a commercial glucometer (Freestyle by TheraSense, Alameda, Calif.). Each rat with BG levels <300 mg/dL were reinjected with streptozotocin. Again, BGs were measured after 3 days, and the procedure was repeated a third time for remaining rats with BGs <300 mg/dL.
as §1
A maximum of 3 rats were housed per cage. Weekly consumption of diet/cage and body weights of each cage occupant was measured throughout the study. Drugs diets were prepared by adding the appropriate weight of drug to 3 kg portions of standard rat chow as follows. The weighed drug dissolved in 400 mL of ethanol was uniformly sprayed onto a monolayer of the rat chow. After the upper layer of chow was uniformly wetted, the chow was mixed and again formed into a monolayer, and the procedure was repeated until the entire drug solution was utilized. Following overnight oven drying to ensure that all solvent was removed, weighed amounts of diet were administered to each appropriate group of animals.
as §2
Each thawed head was manually defleshed using standard dental instruments by Dr. James O'Meara, Assoc. Professor of General Dentistry at Creighton University of Omaha, Nebr. The maxillary area was separated from the remaining skull using bone cutters, and each defleshed left and right maxillary alveolus with molars were stored in PBS buffer. Finally, all cleaned maxillary alveoli were placed in 3% aqueous peroxide solution overnight and air dried. They were then stained in 5% aqueous toluidine blue to identify the cemento-enamel junction (CEJ) on the molars. After air drying, each stained preparation was examined under a dissecting microscope and cleaned of any remaining flesh particles using the tip of a 20-gauge needle. […]

[3] = commercial version (Alredase), withdrawn 1996 or 1997; cited from earlier work
TNF-α = target: T1, TNF-α (Mus musculus, UniProt P06804); conditions: diabetic mice inoculated with Porphyromonas gingivalis; cited from earlier work
T1 construct: host or cells: diabetic mice (in vivo, endogenous TNF-α)
T1 sequence (P06804 80-235 limits assumed): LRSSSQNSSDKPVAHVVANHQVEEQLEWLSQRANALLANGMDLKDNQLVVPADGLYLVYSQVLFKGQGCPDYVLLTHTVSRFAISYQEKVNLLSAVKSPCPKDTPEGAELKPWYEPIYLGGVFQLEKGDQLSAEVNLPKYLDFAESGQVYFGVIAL

diabetic mice = conditions: cited from earlier work
crevicular PMNs = conditions: rats with chemically induced diabetes; cited from earlier work

Row | Molecule | ratio of exposed root to enamel area, LPS side [1] | ratio of exposed root to enamel area, PBS side [1] | difference in the ratios between the LPS and PBS sides [1] | ratio of exposed root to enamel area, LPS side [2] | ratio of exposed root to enamel area, PBS side [2] | other results
1 | O=C1NC(=O)C2(N1)c1cc(F)ccc1-c1ccc(F)cc12 [imirestat] | 0.412±0.016 | 0.439±0.0132 | no significant difference | 0.439±0.043 | 0.421±0.029 | alveolar bone loss ([2]; result in words): effective in reducing alveolar bone loss
2 | O=c1c(O)c(-c2ccc(O)c(O)c2)oc2cc(O)cc(O)c12 [quercetin] | 0.406±0.018 | 0.417±0.042 | no significant difference | 0.448±0.057 | 0.440±0.023 | 
3 | COc1ccc2c(C(=S)N(C)CC(=O)O)cccc2c1C(F)(F)F [tolrestat] | 0.435±0.039 | 0.422±0.036 | no significant difference |  | 0.435±0.010 | reported adverse events leading to market withdrawal [3]: fatalities from hepatic necrosis
4 | Enbrel |  |  |  |  |  | prolonged cytokine expression (TNF-α): reversal of the prolonged cytokine expression
5 | N-benzyloxycarbonyl-Val-Ala-Asp-fluoromethyl-ketone [z-VAD-fmk] |  |  |  |  |  | healing parameters (fibroblast density, collagen I and III mRNA, matrix formation, bone-lining cells, new bone formation) (diabetic mice): significant improvements in several healing parameters
6 | insulin: insulin administration to diabetic rats |  |  |  |  |  | chemotactic response of crevicular PMNs to casein (crevicular PMNs): reverses this decrease
